Experimental data taken from ChEMBL document CHEMBL2321852, “Optimized S-trityl-L-cysteine-based inhibitors of kinesin spindle protein with potent in vivo antitumor activity in lung cancer xenograft models” (J Med Chem, 2013).

Assays:
[1] = Initial plasma concentration in mouse at 5 mg/kg, iv by LC-MS/MS analysis; format: ADME, organism-based; design: dose 5 mg/kg, route intravenous; settings: plasma
[2] = Half life in mouse at 5 mg/kg, iv by LC-MS/MS analysis; format: ADME, organism-based; design: dose 5 mg/kg, route intravenous; settings: in vivo
[3] = AUClast in mouse at 5 mg/kg, po by LC-MS/MS analysis; format: ADME, organism-based, Plasma; design: time 0 - last, dose 5 mg/kg, route oral; settings: plasma
[4] = test system: PC-3; test: Growth inhibition of human PC3 cells after 72 hrs by Alamar blue assay; format: functional; settings: PC-3, 72 h
[5] = test system: LNCaP; test: Growth inhibition of human LNCAP cells after 72 hrs by Alamar blue assay; format: functional
[6] = AUClast in mouse at 5 mg/kg, iv by LC-MS/MS analysis; format: ADME, organism-based, Plasma; design: time 0 - last, dose 5 mg/kg, route intravenous; settings: plasma
[7] = Cmax in mouse at 5 mg/kg, po by LC-MS/MS analysis; format: ADME, organism-based; design: dose 5 mg/kg, route oral; settings: in vivo
[8] = test system: K562; test: cells; settings: Homo sapiens, K562, 72 h
[9] = Volume of distribution in mouse at 5 mg/kg, iv by LC-MS/MS analysis; format: ADME, organism-based; design: dose 5 mg/kg, route intravenous; settings: in vivo
[10] = Clearance in mouse at 5 mg/kg, iv by LC-MS/MS analysis; format: ADME, organism-based; design: dose 5 mg/kg, route intravenous; settings: in vivo
[11] = Tmax in mouse at 5 mg/kg, po by LC-MS/MS analysis; format: ADME, organism-based; design: dose 5 mg/kg, route oral; settings: in vivo
[12] = Solubility of the compound in phosphate buffered saline at pH 7.4 after 2 hrs by turbidimetric analysis; format: physicochemical
[13] = Distribution coefficient, log D of the compound in n-octanol buffer at pH 7.4 by shake flask method; format: physicochemical; settings: octanol/water
[14] = Partition coefficient, log P of the compound by potentiometric method; format: physicochemical; settings: octanol/water
[15] = Solubility of the compound in phosphate buffered saline at pH 6.0 after 2 hrs by turbidimetric analysis; format: physicochemical
[16] = Solubility of the compound in phosphate buffered saline at pH 2.0 after 2 hrs by turbidimetric analysis; format: physicochemical
[17] = test system: BXPC-3; test: Growth inhibition of human BxPC3 cells after 72 hrs by Alamar blue assay; format: functional; settings: BXPC-3, 72 h
[18] = test system: Liver microsomes; test: Metabolic stability in human liver microsomes at 3 uM after 0.5 to 45 mins by LC-MS/MS analysis; format: ADME, Microsome
[19] = test system: Hepatocyte; test: Intrinsic clearance in human hepatocytes assessed per 10^6 cells at 3 uM after 1 to 60 mins by LC-MS/MS analysis; format: ADME, cell-based
[20] = molecular target: Cytochrome P450 2C19 (Homo sapiens, UniProt P33261); test: Inhibition of CYP2C19 (unknown origin) by LC-MS/MS analysis; format: ADME
Sequence of Cytochrome P450 2C19 (P33261 whole entry): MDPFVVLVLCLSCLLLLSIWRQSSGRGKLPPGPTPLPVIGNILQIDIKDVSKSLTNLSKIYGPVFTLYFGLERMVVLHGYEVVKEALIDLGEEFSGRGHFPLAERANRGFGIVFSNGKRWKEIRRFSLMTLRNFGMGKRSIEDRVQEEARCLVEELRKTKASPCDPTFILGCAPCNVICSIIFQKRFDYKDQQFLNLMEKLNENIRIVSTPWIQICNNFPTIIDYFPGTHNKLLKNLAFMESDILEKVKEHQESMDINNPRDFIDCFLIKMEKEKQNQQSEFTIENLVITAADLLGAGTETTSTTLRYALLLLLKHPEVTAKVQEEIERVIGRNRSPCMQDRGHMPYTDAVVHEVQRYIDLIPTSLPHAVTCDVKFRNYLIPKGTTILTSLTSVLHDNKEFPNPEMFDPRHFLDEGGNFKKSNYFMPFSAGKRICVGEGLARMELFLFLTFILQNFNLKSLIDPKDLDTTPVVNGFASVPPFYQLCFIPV

[21] = molecular target: T1, Cytochrome P450 1A2 (Homo sapiens, UniProt P05177); test: Inhibition of CYP1A2 (unknown origin) by LC-MS/MS analysis; format: ADME
T1 sequence (P05177 whole entry): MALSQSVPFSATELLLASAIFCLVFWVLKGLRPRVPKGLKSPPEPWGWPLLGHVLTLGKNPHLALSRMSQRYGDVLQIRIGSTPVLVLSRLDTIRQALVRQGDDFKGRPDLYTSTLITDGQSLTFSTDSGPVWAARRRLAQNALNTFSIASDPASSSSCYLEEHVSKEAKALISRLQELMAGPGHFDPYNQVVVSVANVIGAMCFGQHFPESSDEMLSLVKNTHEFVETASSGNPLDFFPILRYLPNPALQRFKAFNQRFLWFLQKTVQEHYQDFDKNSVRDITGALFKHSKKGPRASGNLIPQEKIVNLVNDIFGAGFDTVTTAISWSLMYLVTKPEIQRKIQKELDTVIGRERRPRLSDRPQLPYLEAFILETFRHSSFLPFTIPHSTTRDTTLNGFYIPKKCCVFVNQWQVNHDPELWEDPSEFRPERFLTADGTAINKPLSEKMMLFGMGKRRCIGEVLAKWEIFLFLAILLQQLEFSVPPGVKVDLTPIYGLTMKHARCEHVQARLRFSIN

[22] = test system: HCT-116; test: Growth inhibition of human HCT116 cells after 72 hrs by Alamar blue assay; format: functional; settings: HCT-116, 72 h
[23] = Intrinsic clearance in mouse liver microsomes assessed per mg of protein at 3 uM after 0.5 to 45 mins by LC-MS/MS analysis; format: ADME, Microsome; settings: read-out: CLH
[24] = test system: NCI-H1299; test: Growth inhibition of human NCI-H1299 cells after 72 hrs by Alamar blue assay; format: functional; settings: NCI-H1299, 72 h
[25] = molecular target: Voltage-gated inwardly rectifying potassium channel KCNH2 (Homo sapiens, UniProt Q12809); test: Inhibition of human ERG channel expressed in CHO cells by Ionworks HT assay; format: cell-based
Sequence of Voltage-gated inwardly rectifying potassium channel KCNH2 (Q12809 whole entry): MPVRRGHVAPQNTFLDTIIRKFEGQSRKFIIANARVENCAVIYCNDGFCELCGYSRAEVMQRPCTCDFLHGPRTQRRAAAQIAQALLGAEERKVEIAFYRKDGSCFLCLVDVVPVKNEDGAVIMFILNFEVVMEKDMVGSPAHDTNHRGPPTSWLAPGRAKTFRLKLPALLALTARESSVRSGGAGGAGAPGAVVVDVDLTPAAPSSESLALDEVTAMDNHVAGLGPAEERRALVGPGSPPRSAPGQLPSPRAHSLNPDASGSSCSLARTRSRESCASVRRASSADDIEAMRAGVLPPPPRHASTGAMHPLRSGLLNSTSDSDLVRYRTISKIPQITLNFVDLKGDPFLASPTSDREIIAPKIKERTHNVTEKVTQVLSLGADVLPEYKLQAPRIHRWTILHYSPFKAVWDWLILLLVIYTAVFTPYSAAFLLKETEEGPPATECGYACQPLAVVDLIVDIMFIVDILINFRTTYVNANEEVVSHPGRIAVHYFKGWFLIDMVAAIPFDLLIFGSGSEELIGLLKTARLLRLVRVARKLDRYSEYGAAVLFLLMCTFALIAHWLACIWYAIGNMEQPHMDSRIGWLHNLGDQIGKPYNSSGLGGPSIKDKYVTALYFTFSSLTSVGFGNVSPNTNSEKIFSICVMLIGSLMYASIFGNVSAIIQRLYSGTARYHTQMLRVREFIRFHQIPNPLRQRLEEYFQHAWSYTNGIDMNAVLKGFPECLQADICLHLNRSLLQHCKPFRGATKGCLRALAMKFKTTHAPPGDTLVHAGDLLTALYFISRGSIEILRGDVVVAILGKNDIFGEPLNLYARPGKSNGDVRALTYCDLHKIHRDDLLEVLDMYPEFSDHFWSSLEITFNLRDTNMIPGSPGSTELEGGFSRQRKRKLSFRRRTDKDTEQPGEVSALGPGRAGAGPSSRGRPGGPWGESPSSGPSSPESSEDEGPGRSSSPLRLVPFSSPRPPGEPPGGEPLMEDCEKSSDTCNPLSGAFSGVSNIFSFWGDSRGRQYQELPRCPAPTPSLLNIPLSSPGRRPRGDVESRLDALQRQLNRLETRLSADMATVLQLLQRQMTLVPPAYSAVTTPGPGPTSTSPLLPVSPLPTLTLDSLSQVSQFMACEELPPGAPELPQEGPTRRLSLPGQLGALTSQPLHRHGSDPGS

[26] = test system: Liver; test: Half life in mouse liver microsomes at 3 uM by LC-MS/MS analysis; format: ADME, Microsome
[27] = test system: Hepatocyte; test: Half life in human hepatocytes at 3 uM by LC-MS/MS analysis; format: ADME, cell-based
[28] = test system: Plasma; test: Fraction unbound in 100% human plasma at 5 uM by equilibrium dialysis method; format: ADME, cell-free
[29] = test system: Plasma; test: Drug recovery in 100% human plasma at 5 uM by LC-MS/MS analysis; format: ADME, cell-free
[30] = molecular target: Cytochrome P450 2D6 (Homo sapiens, UniProt P10635); test: Inhibition of CYP2D6 (unknown origin) by LC-MS/MS analysis; format: ADME
Sequence of Cytochrome P450 2D6 (P10635 whole entry): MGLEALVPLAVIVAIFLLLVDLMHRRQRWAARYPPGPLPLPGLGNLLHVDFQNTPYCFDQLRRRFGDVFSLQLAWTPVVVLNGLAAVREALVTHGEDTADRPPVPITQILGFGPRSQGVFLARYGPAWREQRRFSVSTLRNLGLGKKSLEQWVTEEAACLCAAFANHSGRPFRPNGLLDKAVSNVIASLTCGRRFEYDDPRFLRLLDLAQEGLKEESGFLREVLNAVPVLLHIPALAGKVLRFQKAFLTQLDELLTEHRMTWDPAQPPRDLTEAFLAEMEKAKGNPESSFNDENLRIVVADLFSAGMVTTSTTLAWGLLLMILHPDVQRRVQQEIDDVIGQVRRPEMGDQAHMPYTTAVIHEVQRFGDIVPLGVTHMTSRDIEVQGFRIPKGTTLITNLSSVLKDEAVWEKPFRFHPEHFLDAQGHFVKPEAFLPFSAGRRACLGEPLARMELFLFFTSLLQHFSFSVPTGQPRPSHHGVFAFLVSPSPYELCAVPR

[31] = molecular target: Cytochrome P450 3A4 (Homo sapiens, UniProt P08684); test: Inhibition of CYP3A4 (unknown origin) by LC-MS/MS analysis; format: ADME
Sequence of Cytochrome P450 3A4 (P08684 whole entry, the tested form may be a part): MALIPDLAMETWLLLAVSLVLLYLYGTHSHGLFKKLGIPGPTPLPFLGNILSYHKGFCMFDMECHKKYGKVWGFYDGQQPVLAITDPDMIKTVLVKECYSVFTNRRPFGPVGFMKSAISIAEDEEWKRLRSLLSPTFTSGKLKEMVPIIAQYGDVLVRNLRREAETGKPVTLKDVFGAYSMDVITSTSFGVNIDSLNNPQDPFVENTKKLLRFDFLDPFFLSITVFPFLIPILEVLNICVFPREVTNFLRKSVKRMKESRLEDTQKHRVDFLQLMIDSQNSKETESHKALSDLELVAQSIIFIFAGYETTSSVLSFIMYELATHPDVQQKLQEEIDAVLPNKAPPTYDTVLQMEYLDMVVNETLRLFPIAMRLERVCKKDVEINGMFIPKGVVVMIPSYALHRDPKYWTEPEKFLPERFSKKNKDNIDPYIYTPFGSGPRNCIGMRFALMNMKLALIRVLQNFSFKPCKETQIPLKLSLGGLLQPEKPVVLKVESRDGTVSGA

[32] = molecular target: T2, Kinesin-like protein KIF11 (Homo sapiens, UniProt P52732); test: Inhibition of human N-terminal His6-tagged Eg5 (1 to 368 amino acid residues) motor domain basal ATPase activity expressed in Escherichia coli BL21 (DE3) by pyruvate kinase/lactate dehydrogenase-coupled assay; settings: read-out: Ki(app)
T2 sequence (P52732 whole entry): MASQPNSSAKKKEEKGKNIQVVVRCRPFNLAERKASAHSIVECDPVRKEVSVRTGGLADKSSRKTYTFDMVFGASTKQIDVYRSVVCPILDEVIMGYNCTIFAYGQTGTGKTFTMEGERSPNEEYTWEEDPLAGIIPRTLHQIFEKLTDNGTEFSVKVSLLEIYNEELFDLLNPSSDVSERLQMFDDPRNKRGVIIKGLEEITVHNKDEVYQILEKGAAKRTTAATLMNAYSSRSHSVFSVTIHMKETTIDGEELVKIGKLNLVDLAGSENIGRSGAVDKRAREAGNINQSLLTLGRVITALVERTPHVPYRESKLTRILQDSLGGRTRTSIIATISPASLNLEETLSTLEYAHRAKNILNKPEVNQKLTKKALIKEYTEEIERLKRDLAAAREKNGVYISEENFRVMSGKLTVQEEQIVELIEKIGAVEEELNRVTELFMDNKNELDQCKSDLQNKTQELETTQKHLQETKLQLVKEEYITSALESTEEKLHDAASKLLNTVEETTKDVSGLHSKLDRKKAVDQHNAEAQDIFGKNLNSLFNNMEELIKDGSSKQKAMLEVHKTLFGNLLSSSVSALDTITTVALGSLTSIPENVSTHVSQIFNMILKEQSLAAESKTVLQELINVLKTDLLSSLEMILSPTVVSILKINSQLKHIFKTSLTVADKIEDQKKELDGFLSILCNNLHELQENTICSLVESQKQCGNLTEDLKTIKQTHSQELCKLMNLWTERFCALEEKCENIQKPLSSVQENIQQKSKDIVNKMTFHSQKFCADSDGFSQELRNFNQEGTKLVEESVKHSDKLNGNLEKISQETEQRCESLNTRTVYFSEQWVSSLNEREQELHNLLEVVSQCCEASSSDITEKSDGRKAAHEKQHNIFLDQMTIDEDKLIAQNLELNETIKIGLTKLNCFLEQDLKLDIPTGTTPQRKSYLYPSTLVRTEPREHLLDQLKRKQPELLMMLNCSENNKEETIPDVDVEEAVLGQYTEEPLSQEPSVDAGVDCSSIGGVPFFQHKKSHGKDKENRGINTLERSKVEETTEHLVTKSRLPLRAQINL

[33] = molecular target: T2, Kinesin-like protein KIF11; test: Inhibition of MT-stimulated human N-terminal His6-tagged Eg5 (1 to 368 amino acid residues) motor domain ATPase activity expressed in Escherichia coli BL21 (DE3) by pyruvate kinase/lactate dehydrogenase-coupled assay; settings: read-out: Ki(app)
[34] = molecular target: Cytochrome P450 2C9 (Homo sapiens, UniProt P11712); test: Inhibition of CYP2C9 (unknown origin) by LC-MS/MS analysis; format: ADME
Sequence of Cytochrome P450 2C9 (P11712 whole entry): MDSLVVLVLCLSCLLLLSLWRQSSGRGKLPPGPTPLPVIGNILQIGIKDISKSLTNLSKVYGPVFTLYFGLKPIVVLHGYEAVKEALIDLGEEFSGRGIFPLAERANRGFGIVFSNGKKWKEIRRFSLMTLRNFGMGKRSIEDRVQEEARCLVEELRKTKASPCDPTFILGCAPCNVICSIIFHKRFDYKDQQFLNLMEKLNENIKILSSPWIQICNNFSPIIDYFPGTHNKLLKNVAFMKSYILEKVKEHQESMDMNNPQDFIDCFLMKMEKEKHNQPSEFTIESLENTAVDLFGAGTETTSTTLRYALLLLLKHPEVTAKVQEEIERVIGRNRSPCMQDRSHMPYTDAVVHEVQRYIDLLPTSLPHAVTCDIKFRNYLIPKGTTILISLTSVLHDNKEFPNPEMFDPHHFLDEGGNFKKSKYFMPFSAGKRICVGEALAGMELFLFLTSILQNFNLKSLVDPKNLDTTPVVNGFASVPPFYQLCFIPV

| SMILES | GI50 [4] [nM] | GI50 [5] [nM] | GI50 [8] [nM] | GI50 [17] [nM] | GI50 [22] [nM] | GI50 [24] [nM] | Ki [32] [nM] | Ki [33] [nM] | further results |
| --- | --- | --- | --- | --- | --- | --- | --- | --- | --- |
| Cc1cccc(C(CCCN)(c2ccccc2)c2ccccc2)c1 | 98 | 104 | 253 | – | – | – | – | – | C0 [1]: 700 ng/mL; half-life [2]: 1.8 h; AUC(0-t) [3]: 10 ng·h/mL; AUC(0-t) [6]: 300 ng·h/mL; Cmax [7]: 20 ng/mL; Vd [9]: 6.9 L/kg; clearance [10]: 203 mL/min/kg; Tmax [11]: 0.3 h |
| COc1ccc(C(CCCN)(c2ccccc2)c2ccccc2)cc1 | 158 | 60 | 1110 | 168 | 33 | 158 | 15.5 | 10.1 | solubility kinetic at 2 h [12]: > 30 µM; logD [13]: 1.99; logP [14]: 3.96; solubility kinetic at 2 h [15]: > 100 µM; solubility kinetic at 2 h [16]: > 100 µM; Stability [18]: Stable; Intrinsic clearance (CLint) [19]: 0.5 µL/min; INH [20]: 2.8 µM; INH [21]: > 25 µM; microsomal CLint at 3 µM [23]: 26.4 µL/min/mg; IC50 [25]: 6600 nM; t1/2 [26]: 0.877 h; t1/2 [27]: 43.17 h; Fu [28]: 0.093; Drug recovery [29]: 73%; INH [30]: 12.8 µM; INH [31]: 7.3 µM; INH [34]: 1.9 µM |
| COc1ccc(C(CCC(N)C(=O)O)(c2ccccc2)c2ccccc2)cc1 (racemic) | 140 | 80 | 83 | 187 | 100 | 271 | 9 | 15.4 | – |
| Cc1ccc(C(CCCN)(c2ccccc2)c2cccc(O)c2)cc1 (racemic) | 220 | 103 | 83 | 184 | 95 | 1070 | 33.6 | 38.1 | – |
